Experimental data as given in US9382254B2, “Compounds and pharmaceutical compositions thereof for the treatment of cystic fibrosis” (Galapagos NV, priority 2013, dated 2016).

Experiments:
Assay type in all cases: cell-based
CFTR ΔF508 mutant [1] = target: T1, CFTR ΔF508 mutant (Homo sapiens, UniProt P13569, DEL508-508); assay: YFP-halide influx assay for the CFTR-ΔF508 mutation, PBS buffer (96 well); details: CFBE41o- cells, forskolin 10.67 μM
T1 construct: expressed in transfected cells; host or cells: CFBE41o- (adenoviral transduction)
T1 sequence (P13569 with tags, fused parts or gaps DEL508-508): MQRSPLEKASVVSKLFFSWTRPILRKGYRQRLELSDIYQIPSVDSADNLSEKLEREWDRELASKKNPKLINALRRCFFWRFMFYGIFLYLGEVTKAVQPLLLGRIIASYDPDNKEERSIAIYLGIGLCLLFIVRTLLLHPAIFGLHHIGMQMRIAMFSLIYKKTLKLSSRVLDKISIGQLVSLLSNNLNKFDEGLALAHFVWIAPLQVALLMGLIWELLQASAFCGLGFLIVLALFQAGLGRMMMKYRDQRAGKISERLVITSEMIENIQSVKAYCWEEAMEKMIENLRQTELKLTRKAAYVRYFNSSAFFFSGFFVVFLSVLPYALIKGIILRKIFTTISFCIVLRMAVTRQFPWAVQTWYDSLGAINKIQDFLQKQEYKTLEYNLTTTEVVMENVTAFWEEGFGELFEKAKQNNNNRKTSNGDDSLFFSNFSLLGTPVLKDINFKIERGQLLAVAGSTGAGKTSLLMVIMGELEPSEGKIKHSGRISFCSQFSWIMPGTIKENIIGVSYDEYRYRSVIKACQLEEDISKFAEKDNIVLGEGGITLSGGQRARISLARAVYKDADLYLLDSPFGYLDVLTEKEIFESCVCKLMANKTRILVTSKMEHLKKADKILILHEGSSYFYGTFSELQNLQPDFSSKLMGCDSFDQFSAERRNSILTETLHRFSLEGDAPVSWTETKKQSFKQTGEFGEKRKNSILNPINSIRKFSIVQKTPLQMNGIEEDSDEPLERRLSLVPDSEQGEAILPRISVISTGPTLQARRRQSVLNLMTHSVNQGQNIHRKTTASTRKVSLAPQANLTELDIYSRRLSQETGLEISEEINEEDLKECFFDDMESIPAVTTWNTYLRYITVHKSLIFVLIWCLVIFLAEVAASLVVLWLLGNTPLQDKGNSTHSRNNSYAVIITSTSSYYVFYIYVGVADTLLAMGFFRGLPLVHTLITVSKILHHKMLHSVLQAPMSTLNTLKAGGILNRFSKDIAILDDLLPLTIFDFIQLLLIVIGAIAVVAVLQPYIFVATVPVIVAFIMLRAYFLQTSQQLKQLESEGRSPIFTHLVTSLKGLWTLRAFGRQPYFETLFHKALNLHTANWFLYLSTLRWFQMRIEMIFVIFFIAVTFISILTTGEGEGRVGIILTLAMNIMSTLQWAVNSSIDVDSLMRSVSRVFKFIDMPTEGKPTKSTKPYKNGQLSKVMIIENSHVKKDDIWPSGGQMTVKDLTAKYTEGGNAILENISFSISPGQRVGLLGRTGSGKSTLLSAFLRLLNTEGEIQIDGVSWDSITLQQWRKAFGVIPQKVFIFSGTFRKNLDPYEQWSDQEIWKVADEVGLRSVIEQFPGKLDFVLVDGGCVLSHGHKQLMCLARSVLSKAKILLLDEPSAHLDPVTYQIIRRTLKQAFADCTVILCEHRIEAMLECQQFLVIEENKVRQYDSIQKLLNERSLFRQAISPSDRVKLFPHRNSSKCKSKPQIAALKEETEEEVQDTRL
In short: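 CFBE41o- cells were adenovirally transduced with CFTR ΔF508 and YFP H148Q/I152L, then incubated 24 h at 27 °C or with a CFTR modulator at 37 °C. I⁻-induced fluorescence quenching was recorded over 7 s after injection; response expressed as 1−F/F0, with EC50 from concentration plots.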

CFTR ΔF508 mutant [2] = target: T1, CFTR ΔF508 mutant; assay: YFP-halide influx assay for the CFTR-ΔF508 mutation, gluconate buffer; details: CFBE41o- cells, forskolin 10.67 μM
In short: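 CFBE41o- cells adenovirally transduced with CFTR ΔF508 and YFP H148Q/I152L, then held 24 h at 27 °C or treated with CFTR modulator 24 h at 37 °C. I− quenching recorded for 7 s after injection; activity as 1-F/F0, EC50 from concentration plot.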

CFTR ΔF508 mutant [3] = target: T1, CFTR ΔF508 mutant; assay: YFP-halide influx assay for the CFTR-ΔF508 mutation (384 well, FDSS/μCell); details: CFBE41o- cells, CFTR-ΔF508, 1×D-PBS, fluorescence after 36 seconds
In short: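 Potentiator read-out as 1−F/F0, F taken 36 s after iodide addition, EC50 fitted against compound concentration. Cells: CFBE41o- expressing ΔF508 CFTR plus halide-sensitive YFP via adenovirus, rescued by 27 °C for 24 h or 24 h modulator at 37 °C.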

CFTR G551D mutant = target: T2, CFTR G551D mutant (Homo sapiens, UniProt P13569, G551D); assay: YFP-halide influx assay for the CFTR-G551D mutation; details: HEK293 cells, forskolin 10.67 μM
T2 construct: expressed in transfected cells; host or cells: HEK293 (reverse transfection with plasmid)
T2 sequence (P13569 whole entry G551D): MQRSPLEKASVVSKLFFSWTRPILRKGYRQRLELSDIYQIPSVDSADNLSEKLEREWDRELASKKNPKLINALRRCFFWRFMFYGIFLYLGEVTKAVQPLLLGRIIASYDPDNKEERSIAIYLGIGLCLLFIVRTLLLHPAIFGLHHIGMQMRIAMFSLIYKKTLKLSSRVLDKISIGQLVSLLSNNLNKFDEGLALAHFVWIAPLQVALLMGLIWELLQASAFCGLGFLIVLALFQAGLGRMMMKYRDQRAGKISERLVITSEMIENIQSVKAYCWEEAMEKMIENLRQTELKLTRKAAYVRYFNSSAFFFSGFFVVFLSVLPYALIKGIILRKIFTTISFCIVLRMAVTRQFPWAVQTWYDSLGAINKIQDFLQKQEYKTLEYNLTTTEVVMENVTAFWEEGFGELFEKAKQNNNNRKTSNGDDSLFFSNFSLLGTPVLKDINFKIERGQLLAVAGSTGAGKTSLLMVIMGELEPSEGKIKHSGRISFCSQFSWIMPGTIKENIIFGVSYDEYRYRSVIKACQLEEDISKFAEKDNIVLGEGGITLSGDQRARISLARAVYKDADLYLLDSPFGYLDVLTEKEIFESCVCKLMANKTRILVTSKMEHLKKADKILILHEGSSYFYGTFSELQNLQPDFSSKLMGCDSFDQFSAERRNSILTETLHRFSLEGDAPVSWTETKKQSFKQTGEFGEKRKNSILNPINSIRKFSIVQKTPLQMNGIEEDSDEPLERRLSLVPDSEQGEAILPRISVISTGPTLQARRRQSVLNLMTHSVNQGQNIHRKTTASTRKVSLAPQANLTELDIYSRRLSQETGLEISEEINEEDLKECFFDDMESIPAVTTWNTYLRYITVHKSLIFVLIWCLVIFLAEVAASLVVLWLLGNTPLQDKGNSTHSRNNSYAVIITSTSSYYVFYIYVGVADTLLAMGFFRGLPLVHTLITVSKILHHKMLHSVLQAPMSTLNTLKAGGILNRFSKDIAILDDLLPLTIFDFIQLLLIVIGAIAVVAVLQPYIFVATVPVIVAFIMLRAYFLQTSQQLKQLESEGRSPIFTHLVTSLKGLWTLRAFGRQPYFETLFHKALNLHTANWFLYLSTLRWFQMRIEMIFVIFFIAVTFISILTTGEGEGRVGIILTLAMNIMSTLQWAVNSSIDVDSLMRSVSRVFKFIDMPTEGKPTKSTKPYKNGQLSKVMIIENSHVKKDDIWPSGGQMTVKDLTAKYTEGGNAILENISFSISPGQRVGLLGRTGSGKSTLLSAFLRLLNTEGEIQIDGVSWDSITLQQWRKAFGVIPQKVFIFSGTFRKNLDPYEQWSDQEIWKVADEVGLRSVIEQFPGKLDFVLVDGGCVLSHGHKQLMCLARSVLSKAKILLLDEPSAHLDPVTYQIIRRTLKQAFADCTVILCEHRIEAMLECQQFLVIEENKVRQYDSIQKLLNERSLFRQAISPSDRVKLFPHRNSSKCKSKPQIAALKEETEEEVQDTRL
In short: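 HEK293 cells reverse-transfected with CFTR G551D and YFP H148Q/I152L/F47L halide sensor, expressed 24 h at 37 °C. Iodide-induced fluorescence quench recorded 7 s after I− injection; response = 1−F/F0, with EC50 from plot against compound concentration.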

Structure (SMILES)	EC50 (CFTR ΔF508 mutant [1]) [µM]	EC50 (CFTR ΔF508 mutant [2]) [µM]	EC50 (CFTR ΔF508 mutant [3]) [µM]	EC50 (CFTR G551D mutant) [µM]
NC(=O)c1cc(S(=O)(=O)N2CCOCC2)sc1NC(=O)c1ccccc1C(F)(F)F [Compound 78, 5-(morpholinosulfonyl)-2-(2-(trifluoromethyl)benzamido)thiophene-3-carboxamide]	0.22	0.401	0.146	3.07
CC(C)(C)C(=O)Nc1sc(S(=O)(=O)c2cccc(F)c2)cc1C(N)=O [Compound 122, 5-(3-fluorophenylsulfonyl)-2-pivalamidothiophene-3-carboxamide]	0.114	0.293	0.0684	5.68
COc1ccc(CN(C)S(=O)(=O)c2cc(C(N)=O)c(NC(=O)c3cc[nH]n3)s2)cc1F [Compound 160, N-(3-carbamoyl-5-(N-(3-fluoro-4-methoxybenzyl)-N-methylsulfamoyl)thiophen-2-yl)-1H-pyrazole-3-carboxamide]	0.0387	0.0484	0.21	0.272
COc1ccc(CN(C)S(=O)(=O)c2cc(C(N)=O)c(NC(=O)c3cc[nH]n3)s2)cc1 [Compound 171, N-(3-carbamoyl-5-(N-(4-methoxybenzyl)-N-methylsulfamoyl)thiophen-2-yl)-1H-pyrazole-3-carboxamide]	0.0375	0.104	0.0814	0.756
CN(Cc1ccc(C(F)(F)F)cc1)S(=O)(=O)c1cc(C(N)=O)c(NC(=O)c2cc[nH]n2)s1 [Compound 175, N-(3-carbamoyl-5-(N-methyl-N-(4-(trifluoromethyl)benzyl)sulfamoyl)thiophen-2-yl)-1H-pyrazole-3-carboxamide]	0.0617	0.106	0.0968	0.527
CN(CCC(F)(F)F)S(=O)(=O)c1cc(C(N)=O)c(NC(=O)c2cc[nH]n2)s1 [Compound 194, N-(3-carbamoyl-5-(N-methyl-N-(3,3,3-trifluoropropyl)sulfamoyl)thiophen-2-yl)-1H-pyrazole-3-carboxamide]	0.0383	0.154	0.0207	0.185
CN(Cc1ccncc1)S(=O)(=O)c1cc(C(N)=O)c(NC(=O)c2cc[nH]n2)s1 [Compound 207, N-(3-carbamoyl-5-(N-methyl-N-(pyridin-4-ylmethyl)sulfamoyl)thiophen-2-yl)-1H-pyrazole-3-carboxamide]	0.125	0.317	0.0481	0.442
NC(=O)c1cc(S(=O)(=O)N2CCOCC2)sc1NC(=O)c1c(O)cc(F)cc1F [Compound 212, 2-(2,4-difluoro-6-hydroxybenzamido)-5-(morpholinosulfonyl) thiophene-3-carboxamide]	0.0703	0.184		
NC(=O)c1cc(S(=O)(=O)N2CCC(F)(F)CC2)sc1NC(=O)C1(O)CCC1 [Compound 213, 5-(4,4-difluoropiperidin-1-ylsulfonyl)-2-(1-hydroxycyclobutanecarboxamido) thiophene-3-carboxamide]	0.118	0.0873	0.0528	0.541
NC(=O)c1cc(S(=O)(=O)N2CCC(F)(F)CC2)sc1NC(=O)c1c(O)cc(F)cc1F [Compound 214, 2-(2,4-difluoro-6-hydroxybenzamido)-5-(4,4-difluoropiperidin-1-ylsulfonyl) thiophene-3-carboxamide]	0.0372	0.117	0.0258	
CC(C)c1cc(C(=O)Nc2sc(S(=O)(=O)N3CCC(F)(F)CC3)cc2C(N)=O)c(O)c(C(C)C)c1 [Compound 215, 5-(4,4-difluoropiperidin-1-ylsulfonyl)-2-(2-hydroxy-3,5-diisopropylbenzamido) thiophene-3-carboxamide]	0.862	0.292		
Cc1cccc(C(=O)Nc2sc(S(=O)(=O)N3CCOCC3)cc2C(N)=O)c1O [Compound 216, 2-(2-hydroxy-3-methylbenzamido)-5-(morpholinosulfonyl) thiophene-3-carboxamide]	0.216	0.709		
CC(C)(CO)C(=O)Nc1sc(S(=O)(=O)N2CCC(F)(F)CC2)cc1C(N)=O [Compound 217, 5-(4,4-difluoropiperidin-1-ylsulfonyl)-2-(3-hydroxy-2,2-dimethylpropanamido) thiophene-3-carboxamide]	0.164	0.195		
CN(CC1CC1)S(=O)(=O)c1cc(C(N)=O)c(NC(=O)c2ccccc2F)s1 [Compound 218, 5-(N-(cyclopropylmethyl)-N-methylsulfamoyl)-2-(2-fluorobenzamido) thiophene-3-carboxamide]	0.0727	0.196		0.41
CC(C)(O)C(=O)Nc1sc(S(C)(=O)=O)cc1C(N)=O [Compound 219, 2-(2-hydroxy-2-methylpropanamido)-5-(methylsulfonyl) thiophene-3-carboxamide]	> 1	> 1		
CC(C)S(=O)(=O)c1cc(C(N)=O)c(NC(=O)C(C)(C)O)s1 [Compound 220, 2-(2-hydroxy-2-methylpropanamido)-5-(isopropylsulfonyl) thiophene-3-carboxamide]	2.31	> 1		
CC(C)(O)C(=O)Nc1sc(S(=O)(=O)c2ccc(F)cc2)cc1C(N)=O [Compound 221, 5-(4-fluorophenylsulfonyl)-2-(2-hydroxy-2-methylpropanamido) thiophene-3-carboxamide]	0.0494	0.11	0.0261	1.16
NC(=O)c1cc(S(=O)(=O)c2ccc(F)cc2)sc1NC(=O)C1(O)CC1 [Compound 224, 5-(4-fluorophenylsulfonyl)-2-(1-hydroxycyclopropanecarboxamido) thiophene-3-carboxamide]	0.0541	0.103	0.035	0.511

Continued, values first:

EC50 (CFTR ΔF508 mutant [1]) [µM]	EC50 (CFTR ΔF508 mutant [2]) [µM]	EC50 (CFTR ΔF508 mutant [3]) [µM]	EC50 (CFTR G551D mutant) [µM]	Structure (SMILES)
0.0355	0.0505	0.0795	1.87	NC(=O)c1cc(S(=O)(=O)N2CC=C(C(F)(F)F)CC2)sc1NC(=O)c1ccccc1F [Compound 158, 2-(2-fluorobenzamido)-5-(4-(trifluoromethyl)-5,6-dihydropyridin-1(2H)-ylsulfonyl)thiophene-3-carboxamide]
0.0312	0.0222	0.0849	0.332	CC(C)c1ccccc1S(=O)(=O)c1cc(C(N)=O)c(NC(=O)c2ccccc2F)s1 [Compound 179, 2-(2-fluorobenzamido)-5-(2-isopropylphenylsulfonyl) thiophene-3-carboxamide]
0.0257	0.153	0.0127	0.526	CC1(C)CN(S(=O)(=O)c2cc(C(N)=O)c(NC(=O)c3ccccc3F)s2)C1 [Compound 183, 5-(3,3-dimethylazetidin-1-ylsulfonyl)-2-(2-fluorobenzamido)thiophene-3-carboxamide]
0.0334	0.0606	0.0207	0.298	CN(CC(C)(C)C)S(=O)(=O)c1cc(C(N)=O)c(NC(=O)c2cc[nH]n2)s1 [Compound 192, N-(3-carbamoyl-5-(N-methyl-N-neopentylsulfamoyl)thiophen-2-yl)-1H-pyrazole-3-carboxamide]
0.0314	0.0726	0.0069	0.134	CC1(C)CN(S(=O)(=O)c2cc(C(N)=O)c(NC(=O)c3cc[nH]n3)s2)C1 [Compound 206, N-(3-carbamoyl-5-(3,3-dimethylazetidin-1-ylsulfonyl)thiophen-2-yl)-1H-pyrazole-3-carboxamide]
0.0345	0.0739	0.006	0.314	CN(C1CC1)S(=O)(=O)c1cc(C(N)=O)c(NC(=O)c2cc[nH]n2)s1 [Compound 209, N-(3-carbamoyl-5-(N-cyclopropyl-N-methylsulfamoyl)thiophen-2-yl)-1H-pyrazole-3-carboxamide]
0.0261	0.0229	0.0332	0.583	Cc1cc(F)ccc1S(=O)(=O)c1cc(C(N)=O)c(NC(=O)C2(O)CC2)s1 [Compound 222, 5-(4-fluoro-2-methylphenylsulfonyl)-2-(1-hydroxycyclopropanecarboxamido) thiophene-3-carboxamide]
0.0318	0.0379	0.0621	0.327	NC(=O)c1cc(S(=O)(=O)c2ccc(F)cc2)sc1NC(=O)c1ccccc1O [Compound 223, 5-(4-fluorophenylsulfonyl)-2-(2-hydroxybenzamido) thiophene-3-carboxamide]
0.0369	0.0422	0.0338	0.54	NC(=O)c1cc(S(=O)(=O)c2ccc(F)cc2)sc1NC(=O)C1(O)CCC1 [Compound 226, 5-(4-fluorophenylsulfonyl)-2-(1-hydroxycyclobutanecarboxamido) thiophene-3-carboxamide]
